Laboratory results: the supplement of paper PMC10307832

What was measured:
Assay in all cases: relative viability (nuclei count vs DMSO), 5 days (fraction); higher = more cells survive
SGI-1776 + AZD7762 = compound: CN1CCC(CNc2ccc3ncc(-c4cccc(OC(F)(F)F)c4)n3n2)CC1 [SGI-1776] + NC(=O)Nc1cc(-c2cccc(F)c2)sc1C(=O)N[C@H]1CCCNC1 [AZD7762] (partner 0.2 µM)
How it was run: (§1)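 Five library-drug doses in √10 steps were combined with a fixed anchor-drug dose, or a single drug was given alone, by pin tool to lung cancer cell lines in 1536-well plates the day after seeding. Nuclei were stained and counted after 5 days. Relative viability is the nuclei count in treated wells over that in vehicle wells, taken as the median of duplicate plates.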

[1] = compound: C1COCCN1C2=NC(=NC3=C2OC4=C3C=CC=N4)C5=CC(=CC=C5)NC(=O)C6=CN=C(C=C6)N + O=C(c1cc(Cc2n[nH]c(=O)c3ccccc23)ccc1F)N1CCN(C(=O)C2CC2)CC1 [Olaparib] (partner 8 µM)
How it was run: as §1

SGI-1776 + Pictilisib = compound: CN1CCC(CNc2ccc3ncc(-c4cccc(OC(F)(F)F)c4)n3n2)CC1 [SGI-1776] + CS(=O)(=O)N1CCN(Cc2cc3nc(-c4cccc5[nH]ncc45)nc(N4CCOCC4)c3s2)CC1 [Pictilisib] (partner 1 µM)
How it was run: as §1

SGI-1776 + Dasatinib = compound: CN1CCC(CNc2ccc3ncc(-c4cccc(OC(F)(F)F)c4)n3n2)CC1 [SGI-1776] + Cc1nc(Nc2ncc(C(=O)Nc3c(C)cccc3Cl)s2)cc(N2CCN(CCO)CC2)n1 [Dasatinib] (partner 0.075 µM)
How it was run: as §1

Row | Cell Line | relative viability (SGI-1776 + AZD7762; first compound 0.08 µM) | relative viability (SGI-1776 + AZD7762; first compound 0.8 µM) | relative viability (SGI-1776 + AZD7762; first compound 2.53 µM) | relative viability (SGI-1776 + AZD7762; first compound 8 µM) | relative viability ([1]; first compound 0.02 µM) | relative viability ([1]; first compound 0.06325 µM) | relative viability ([1]; first compound 0.2 µM) | relative viability ([1]; first compound 0.6325 µM) | relative viability ([1]; first compound 2 µM) | relative viability (SGI-1776 + Pictilisib; first compound 0.08 µM) | relative viability (SGI-1776 + Pictilisib; first compound 0.8 µM) | relative viability (SGI-1776 + Pictilisib; first compound 2.53 µM) | relative viability (SGI-1776 + Pictilisib; first compound 8 µM) | relative viability (SGI-1776 + Dasatinib; first compound 0.08 µM) | relative viability (SGI-1776 + Dasatinib; first compound 0.8 µM) | relative viability (SGI-1776 + Dasatinib; first compound 2.53 µM) | relative viability (SGI-1776 + Dasatinib; first compound 8 µM)
1 | 201T | 0.581 | 0.604 | 0.644 | 0.657 | 0.854 | 0.879 | 0.837 | 0.923 | 0.458 | 0.7 | 0.718 | 0.687 | 0.6 | 0.603 | 0.555 | 0.47 | 0.471
2 | A549 | – | – | – | – | 0.39 | 0.353 | 0.311 | 0.243 | 0.239 | 0.566 | 0.513 | 0.392 | 0.267 | – | – | – | –
3 | COR-L23 | – | – | – | – | 0.391 | 0.371 | 0.317 | 0.353 | 0.271 | 0.916 | 0.868 | 0.821 | 0.667 | 0.514 | 0.546 | 0.464 | 0.322
4 | COR-L 105 | – | – | – | – | 0.71 | 0.649 | 0.607 | 0.671 | 0.63 | 0.409 | 0.389 | 0.342 | 0.308 | 0.343 | 0.323 | 0.284 | 0.254
5 | Calu-6 | – | – | – | – | 0.685 | 0.68 | 0.604 | 0.528 | 0.467 | 0.974 | 0.911 | 0.808 | 0.482 | – | – | – | –
6 | EBC-1 | – | – | – | – | 0.7 | 0.77 | 0.582 | 0.668 | 0.356 | 0.436 | 0.374 | 0.299 | 0.15 | – | – | – | –
7 | HCC-44 | 1.07 | 0.969 | 1 | 0.95 | 0.94 | 1.06 | 1.02 | 1.08 | 0.918 | 0.662 | 0.589 | 0.653 | 0.42 | – | – | – | –
8 | IA-LM | – | – | – | – | 0.858 | 0.826 | 0.689 | 0.616 | 0.394 | 0.281 | 0.328 | 0.389 | 0.242 | – | – | – | –
9 | NCI-H520 | – | – | – | – | 0.383 | 0.352 | 0.332 | 0.328 | 0.292 | 0.319 | 0.323 | 0.225 | 0.204 | 0.279 | 0.221 | 0.153 | 0.131
10 | NCI-H522 | 0.819 | 0.747 | 0.789 | 0.613 | 0.584 | 0.649 | 0.63 | 0.554 | 0.525 | – | – | – | – | 0.828 | 0.849 | 0.843 | 0.729
11 | NCI-H661 | – | – | – | – | 0.789 | 0.832 | 0.717 | 0.876 | 0.426 | 0.526 | 0.429 | 0.363 | 0.317 | 1 | 0.979 | 0.837 | 0.692
12 | NCI-H1299 | – | – | – | – | 0.928 | 1.04 | 0.993 | 0.962 | 0.754 | 0.821 | 0.832 | 0.596 | 0.505 | – | – | – | –
13 | NCI-H1563 | – | – | – | – | – | – | – | – | – | 0.707 | 0.588 | 0.583 | 0.467 | 0.446 | 0.474 | 0.457 | 0.453
